Experiments:
Format in all cases: biochemical
μ-opioid receptor [1] = biological target: T1, μ-opioid receptor (Homo sapiens, UniProt P35372); assay: μ-opioid receptor [35S]GTPγS functional assay, HEK-293 or CHO cells; settings: for Emax: HEK-293 or CHO cells, relative to DAMGO
Experimental: (§1) [^35S]GTPγS functional assays were conducted using freshly thawed μ-receptor membranes prepared in-house from a cell line expressing recombinant opioid receptor in a HEK-293, CHO or U-2 OS cell background, or purchased from a commercial source (Perkin Elmer, Shelton, Conn.; or DiscovRx, Fremont, Calif.). Assay reactions were prepared by sequentially adding the following reagents to binding buffer (100 mM NaCl, 10 mM MgCl2, 20 mM HEPES, pH 7.4) on ice (final concentrations indicated): membrane protein (0.026 mg/mL), saponin ([…]), GDP ([…]) and [^35S]GTPγS (0.20 nM; Perkin Elmer, Shelton, Conn.). The prepared membrane solution (190 l/well) was transferred to 96-shallow well polypropylene plates containing 10 μl of 20× concentrated stock solutions of the agonist [D-Ala^2, N-methyl-Phe^4 Gly-ol^5]-enkephalin (DAMGO) prepared in dimethyl sulfoxide (DMSO). Plates were incubated for 30 min at about 25° C. with shaking. Reactions were terminated by rapid filtration onto 96-well Unifilter GF/B filter plates (Perkin Elmer, Shelton, Conn.) using a 96-well tissue harvester (Perkin Elmer, Shelton, Conn.) followed by three filtration washes with 200 μl of ice-cold wash buffer (10 mM NaH2PO4, 10 mM Na2HPO4, pH 7.4). Filter plates were subsequently dried at 50° C. for 2-3 hr. BetaScint scintillation cocktail (Perkin Elmer, Shelton, Conn.) was added (50 μl/well) and plates were counted using a Packard Top-Count for 1 min/well. Data were analyzed using the sigmoidal dose-response curve fitting functions in GraphPad PRISM v. 3.0, or an in-house function for non-linear, sigmoidal dose-response curve-fitting.
(§2) μ GTP EC50 is the concentration of a compound providing 50% of the maximal response for the compound at a μ-opioid receptor.
(§3) μ GTP Emax (%) is the maximal effect elicited by a compound relative to the effect elicited by DAMGO, a standard agonist. Generally, the μ GTP Emax (%) value measures the efficacy of a compound to treat or prevent pain or other Conditions.
In TABLE 2, activity response of certain Compounds of the Invention at the μ- and κ-opioid receptors using HEK-293 or CHO cells was determined as described above for functional assays.

human κ opioid receptor = human κ opioid receptor (Homo sapiens, UniProt P41145); assay: κ-opioid receptor [35S]GTPγS functional assay, U-2 OS cells; design: expressed in transfected cells; host or cells: U-2 OS cells (in-house membranes); settings: for Emax: U2-OS cells, relative to U69,593
Experimental: Membranes from recombinant HEK-293 cells, CHO or U-2 OS cells expressing the recombinant human K opioid receptor (K) were prepared by lysing cells in ice cold hypotonic buffer (2.5 mM MgCl2, 50 mM HEPES, pH 7.4) (10 mL/10 cm dish) followed by homogenization with a tissue grinder/Teflon pestle. Functional [^35S]GTPγS binding assays were conducted as follows. K opioid receptor membrane solution was prepared by sequentially adding final concentrations of 0.026 μg/μl κ membrane protein (in-house), 10 μg/mL saponin, 3 μM GDP and 0.20 nM [^35S]GTPγS to binding buffer (100 mM NaCl, 10 mM MgCl2, 20 mM HEPES, pH 7.4) on ice. The prepared membrane solution (190 μl/well) was transferred to 96-shallow well polypropylene plates containing 10 μl of 20× concentrated stock solutions of agonist prepared in DMSO. Plates were incubated for 30 min at a temperature of about 25° C. with shaking. Reactions were terminated by rapid filtration onto 96-well Unifilter GF/B filter plates (Perkin Elmer, Shelton, Conn.) using a 96-well tissue harvester (Packard) and followed by three filtration washes with 200 μl ice-cold binding buffer (10 mM NaH2PO4, 10 mM Na2HPO4, pH 7.4). Filter plates were subsequently dried at 50° C. for 2-3 hours. Fifty μl/well scintillation cocktail (Perkin Elmer, Shelton, Conn.) was added and plates were counted in a Packard Top-Count for 1 min/well.
κ GTP EC50 is the concentration of a compound providing 50% of the maximal response for the compound at a κ receptor.
κ GTP Emax (%) is the maximal effect elicited by a compound relative to the effect elicited by U69,593.
(§4) In TABLE 2A, activity response of certain Compounds of the Invention at the μ- and κ-opioid receptors using U-2 OS cells was determined as described above for functional assays.

μ-opioid receptor [2] = biological target: T1, μ-opioid receptor; assay: μ-opioid receptor [35S]GTPγS functional assay, U-2 OS cells; design: host or cells: U-2 OS cells; settings: for Emax: U2-OS cells, relative to DAMGO
Experimental: as §1, §2, §3, §4

T1 sequence (P35372 whole entry, species assumed): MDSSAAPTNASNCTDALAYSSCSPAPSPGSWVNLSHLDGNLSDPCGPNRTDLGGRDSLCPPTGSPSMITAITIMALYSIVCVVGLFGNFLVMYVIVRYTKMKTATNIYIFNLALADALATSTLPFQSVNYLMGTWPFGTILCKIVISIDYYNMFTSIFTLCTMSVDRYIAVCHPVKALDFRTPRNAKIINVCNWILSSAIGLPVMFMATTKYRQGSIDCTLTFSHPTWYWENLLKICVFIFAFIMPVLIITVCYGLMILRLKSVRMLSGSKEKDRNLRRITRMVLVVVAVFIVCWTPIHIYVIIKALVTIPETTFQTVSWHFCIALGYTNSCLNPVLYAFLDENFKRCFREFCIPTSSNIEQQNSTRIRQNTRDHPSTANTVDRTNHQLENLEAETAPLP
human κ opioid receptor, sequence (P41145 whole entry): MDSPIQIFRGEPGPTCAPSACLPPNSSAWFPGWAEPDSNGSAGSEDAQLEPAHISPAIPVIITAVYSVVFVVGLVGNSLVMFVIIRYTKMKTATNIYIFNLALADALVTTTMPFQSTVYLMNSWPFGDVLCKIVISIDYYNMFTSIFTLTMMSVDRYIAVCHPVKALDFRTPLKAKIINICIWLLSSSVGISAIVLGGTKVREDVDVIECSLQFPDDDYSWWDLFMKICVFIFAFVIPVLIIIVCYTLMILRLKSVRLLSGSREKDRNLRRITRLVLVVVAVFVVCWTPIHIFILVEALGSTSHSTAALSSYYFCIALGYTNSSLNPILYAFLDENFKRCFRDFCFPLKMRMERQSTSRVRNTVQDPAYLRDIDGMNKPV

SMILES | EC50 (μ-opioid receptor [1]) | Emax (μ-opioid receptor [1]) | EC50 (human κ opioid receptor) | Emax (human κ opioid receptor) | EC50 (μ-opioid receptor [2]) | Emax (μ-opioid receptor [2])
Oc1ccc2c(c1)[C@]13CCN(CC4CC4)[C@H](C2)[C@]1(O)C[C@H](Cc1ccccc1)[C@H](O)C3 [Compound 103, (4bR,6R,7S,8aS,9R)-7-benzyl-11-(cyclopropylmethyl)-5,6,7,8,9,10-hexahydro-8aH-9,4b-(epiminoethano)phenanthrene-3,6,8a-triol] | > 20000 nM | 1% | – | – | – | –
CC(C)CCC(=O)N[C@H]1C[C@@]2(O)[C@H]3Cc4ccc(O)cc4[C@@]2(CCN3C)CC1O (stereo partly drawn) [Compound 105, 4-methyl-N-((4bR,7S,8aS,9R)-3,6,8a-trihydroxy-11-methyl-6,7,8,8a,9,10-hexahydro-5H-9,4b-(epiminoethano)phenanthren-7-yl)pentanamide] | 3650 ± 294 nM | 77 ± 2.65% | – | – | – | –
COc1ccc2c(c1)[C@]13CCN(C)[C@H](C2)[C@H]1[C@H](O)C[C@@H](OCCO)C3 [Compound 119, (4bS,6S,8R,8aS,9R)-6-(2-hydroxyethoxy)-3-methoxy-11-methyl-6,7,8,8a,9,10-hexahydro-5H-9,4b-(epiminoethano)phenanthren-8-ol] | > 20000 nM | 24.2 ± 3.04% | – | – | – | –
CN1CC[C@]23C[C@@H](O)[C@@H](NC(=O)c4ccccc4)C[C@@]2(O)[C@H]1Cc1ccc(O)cc13 [Compound 108, N-((4bR,6R,7S,8aS,9R)-3,6,8a-trihydroxy-11-methyl-6,7,8,8a,9,10-hexahydro-5H-9,4b-(epiminoethano)phenanthren-7-yl)benzamide] | 2190 ± 211 nM | 48.4 ± 0.66% | – | – | – | –
CCN[C@H]1C[C@@]2(O)[C@H]3Cc4ccc(O)cc4[C@@]2(CCN3C)C[C@H]1O [Compound 113, (4bR,6R,7S,8aS,9R)-7-(ethylamino)-11-methyl-5,6,7,8,9,10-hexahydro-8aH-9,4b-(epiminoethano)phenanthrene-3,6,8a-triol] | > 20000 nM | 3.62 ± 3.99% | – | – | – | –
CN(C)[C@@H]1CC[C@@]2(O)[C@H]3Cc4ccc(O)cc4[C@@]2(CCN3C)C1 [Compound 107, (4bR,6R,8aS,9R)-6-(dimethylamino)-11-methyl-5,6,7,8,9,10-hexahydro-8aH-9,4b-(epiminoethano)phenanthrene-3,8a-diol] | 1290 ± 20.3 nM | 36.3 ± 1.2% | – | – | – | –
CN1CC[C@]23C[C@@H](OCCO)C[C@@H](O)[C@@H]2[C@H]1Cc1ccc(O)cc13 [Compound 120, (4bS,6R,8R,8aS,9R)-6-(2-hydroxyethoxy)-11-methyl-6,7,8,8a,9,10-hexahydro-5H-9,4b-(epiminoethano)phenanthrene-3,8-diol] | 436 ± 34.7 nM | 36.3 ± 1.43% | – | – | – | –
CC(C)C(=O)N[C@H]1C[C@H]2[C@H]3Cc4ccc(O)cc4[C@@]2(CCN3CC2CC2)C[C@H]1O [Compound 112, N-((4bS,6R,7S,8aR,9R)-11-(cyclopropylmethyl)-3,6-dihydroxy-6,7,8,8a,9,10-hexahydro-5H-9,4b-(epiminoethano)phenanthren-7-yl)isobutyramide] | 66.7 ± 27.5 nM | 8.61 ± 0.31% | – | – | – | –
CC(C)CCCC(=O)N[C@H]1C[C@@]2(O)[C@H]3Cc4ccc(O)cc4[C@@]2(CCN3CC2CC2)C[C@@H]1O [Compound 115, N-((4bR,6S,7S,8aS,9R)-11-(cyclopropylmethyl)-3,6,8a-trihydroxy-6,7,8,8a,9,10-hexahydro-5H-9,4b-(epiminoethano)phenanthren-7-yl)-5-methylhexanamide] | > 20000 nM | -1.04% | – | – | – | –
COc1ccc2c(c1)[C@]13CCN(C)[C@H](C2)[C@H]1[C@H](O)C[C@H](OCCO)C3 [Compound 118, (4bS,6R,8R,8aS,9R)-6-(2-hydroxyethoxy)-3-methoxy-11-methyl-6,7,8,8a,9,10-hexahydro-5H-9,4b-(epiminoethano)phenanthren-8-ol] | > 20000 nM | 31.8 ± 5.76% | – | – | – | –
COc1ccc2c(c1)[C@@]13CC[C@@H](O)C[C@@]1(O)[C@@H](C2)N(CC1CC1)CC3 [Compound 52, (4bS,7R,8aS,9R)-11-(cyclopropylmethyl)-3-methoxy-5,6,7,8,9,10-hexahydro-8aH-9,4b-(epiminoethano)phenanthrene-7,8a-diol] | – | – | 1570 ± 97.4 nM | 91.3 ± 0.67% | 1260 nM | 23.2 ± 4.07%
COc1ccc2c(c1)[C@]13CCN(CC4CC4)[C@H](C2)[C@]1(O)C[C@H](OCC(C)C)[C@H](O)C3 [Compound 51, (4bR,6R,7S,8aS,9R)-11-(cyclopropylmethyl)-7-isobutoxy-3-methoxy-5,6,7,8,9,10-hexahydro-8aH-9,4b-(epiminoethano)phenanthrene-6,8a-diol] | – | – | 14500 ± 1680 nM | 86.7 ± 3.18% | > 20000 nM | 7%
O=C(N[C@H]1C[C@@]2(O)[C@H]3Cc4ccc(O)cc4[C@@]2(CCN3CC2CC2)CC1O)C1CCCCC1 (stereo partly drawn) [Compound 65, N-((4bR,7S,8aS,9R)-11-(cyclopropylmethyl)-3,6,8a-trihydroxy-6,7,8,8a,9,10-hexahydro-5H-9,4b-(epiminoethano)phenanthren-7-yl)cyclohexanecarboxamide] | – | – | 15.9 ± 2.09 nM | 106 ± 1.89% | 68.4 ± 13 nM | 26.7 ± 0.67%
CN[C@@H]1C[C@@]2(O)[C@H]3Cc4ccc(O)cc4[C@@]2(CCN3CC2CC2)C[C@@H]1O [Compound 35, (4bR,6S,7R,8aS,9R)-11-(cyclopropylmethyl)-7-(methylamino)-5,6,7,8,9,10-hexahydro-8aH-9,4b-(epiminoethano)phenanthrene-3,6,8a-triol] | – | – | 0.2 ± 0.042 nM | 97.3 ± 2.85% | 2.55 ± 0.33 nM | 25.7 ± 0.88%
O=C(O)CN[C@@H]1C[C@@]2(O)[C@H]3Cc4ccc(O)cc4[C@@]2(CCN3CC2CC2)C[C@@H]1O [Compound 40, ((4bR,6S,7R,8aS,9R)-11-(cyclopropylmethyl)-3,6,8a-trihydroxy-6,7,8,8a,9,10-hexahydro-5H-9,4b-(epiminoethano)phenanthren-7-yl)glycine] | – | – | 7.24 ± 0.65 nM | 43 ± 3.06% | > 20000 nM | 2%
COc1ccc2c(c1)[C@@]13CC[C@H](NCC(C)C)C[C@@]1(O)[C@@H](C2)N(CC1CC1)CC3 [Compound 41, (4bS,7S,8aS,9R)-11-(cyclopropylmethyl)-7-(isobutylamino)-3-methoxy-5,6,7,8,9,10-hexahydro-8aH-9,4b-(epiminoethano)phenanthren-8a-ol] | – | – | 41.6 ± 2.25 nM | 102 ± 2.19% | 674 ± 63.8 nM | 74.7 ± 4.67%
Oc1ccc2c(c1)[C@]13CCN(CC4CC4)[C@H](C2)[C@]1(O)C[C@@H](NCc1ccccc1)[C@H](O)C3 [Compound 37, (4bR,6R,7R,8aS,9R)-7-(benzylamino)-11-(cyclopropylmethyl)-5,6,7,8,9,10-hexahydro-8aH-9,4b-(epiminoethano)phenanthrene-3,6,8a-triol] | – | – | 0.5 ± 0.039 nM | 87.7 ± 2.19% | 3.35 ± 0.41 nM | 24.3 ± 0.88%
Oc1ccc2c(c1)[C@]13CCN(CC4CC4)[C@H](C2)[C@]1(O)C[C@H](CC1CCCC1)[C@H](O)C3 [Compound 54, (4bR,6R,7S,8aS,9R)-7-(cyclopentylmethyl)-11-(cyclopropylmethyl)-5,6,7,8,9,10-hexahydro-8aH-9,4b-(epiminoethano)phenanthrene-3,6,8a-triol] | – | – | 32.1 ± 2.76 nM | 97.7 ± 3.93% | > 20000 nM | 3%

From US20200148646A1, “6-S[…] 7-S[…] ANALOGS AND THE USE THEREOF” (Purdue Pharma, L.P., priority 2013, published 2020)
